# Entries after “also recorded” stand apart in the source; their conditions may differ. Residues, ends and D or L forms follow the SMILES beside them. *: point of attachment. Cbz = O=C(OCc1ccccc1)*; CHN2 = [N-]=[N+]=C*; CH2F = FC*
# What was measured:
# HeLa-rtTA cells = assay: Cell viability, MTT dye reduction assay; format: cell-based; settings: 48 h; for Effect on cell viability: 0-60 μM, wild type and mutant fusion cells; for Cell viability: 60 μM
# Method: (§1) FIG. 15 Adaptation of the intracellular assay to a high-throughput screening format. The assay was carried out in a 96-well microplate and fluorescence was measured using the Cytofluor. The expression of GFP fusion proteins was induced for 48 h in the presence of several inhibitors. Cell viability was determined using the MTT dye reduction assay. The average of triplicate values and the standard deviation for fluorescence and cell viability were expressed as a function of inhibitor concentration. Panel A. Relative fluorescence (fold/control) of cells expressing the wild-type preprocathepsin L-GFP fusion protein treated with various inhibitors. Panel B. The relative fluorescence of cells expressing the mutant preprocathepsin L-GFP (C25A) fusion protein in response to treatment with several inhibitors. Panel C. Percentage of viable cells expressing the wild type fusion protein after treatment with inhibitors. Panel D. The percentage of viable cells expressing the mutant fusion protein as described in Panel C.
# Cell Viability Assay—The number of viable cells was evaluated by the MTT dye reduction assay with modification (24). In the presence of various concentrations of inhibitors, cells were grown in 96-well plates for 48 h. MTT reagent was then added to a final concentration of 0.5 mg/ml, and incubation at 37° C. in 5% CO2 was continued for 4 h. The resulting insoluble formazan crystals were solubilized by resuspending the cells in 100 μl of DMSO per well. Absorbance of converted dye was measured at 550/690 nm on SpectraMAX 250 (Molecular Devices). Assay values obtained from control cells were taken as 100%.
# cathepsin L [1] = biological target: T1, cathepsin L (Homo sapiens, UniProt P07711); assay: Intracellular cathepsin L assay, wild type preprocathepsin L-GFP in HeLa-rtTA cells, 96-well plate reader; format: cell-based; settings: 48 h; for Effect on overall level of GFP fluorescence: 0-60 μM
# T1 construct: The C-terminus of the full length human preprocathepsin L is fused in frame to the N-terminus of GFP; GFP (Aequorea victoria, F64L/S65C/I167T/K238N) via BglII-NheI linker (C); expressed in transfected cells
# T1 sequence (P07711 18-333 limits assumed): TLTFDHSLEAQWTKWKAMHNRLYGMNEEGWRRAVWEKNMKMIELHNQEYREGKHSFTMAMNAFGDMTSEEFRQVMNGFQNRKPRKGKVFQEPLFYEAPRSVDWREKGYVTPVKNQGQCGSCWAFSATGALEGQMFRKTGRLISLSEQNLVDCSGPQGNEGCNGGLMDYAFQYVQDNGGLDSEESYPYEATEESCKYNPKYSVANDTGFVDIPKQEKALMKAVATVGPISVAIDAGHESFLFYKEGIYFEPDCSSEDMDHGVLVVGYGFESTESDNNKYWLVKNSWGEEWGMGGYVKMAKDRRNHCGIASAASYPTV
# Method: (§2) Adaptation of the assay to a 96-well plate format—The intracellular assay was performed in a 96-well microplate format using a plate reader to monitor GFP fluorescence. Three different inhibitors were used for the plate assay: Cbz-LeuLeuTyr-CHN2, Cbz-LeuLeuTyr-CH2F and E-64. These compounds are all irreversible inhibitors of cysteine proteases. Prior to measuring the fluorescence, the stably transfected pools of HeLa-rtTA cells were induced with doxycycline and cultured in presence of various concentrations of the inhibitors for 48 h.
# as §1, with “Panel D. The percentage of viable cells expressing the mutant fusion protein as described in Panel C.” left out
# Proteolytic Assays—For in vitro assays, purified GFP-His protein (100 μg) was incubated with 400 nM cathepsin L for 4.5 h. Aliquots were analyzed periodically to monitor the fluorescence using a CytoFluor plate reader (PerSeptive Biosystems, Framingham, Mass.) with cut-off filters of 488 nm (excitation) and […] (emission). […] For cell-based assays, stably transfected HeLa cells (stable pools) of either wild type cathepsin L-GFP or mutant cathepsin L-GFP fusions were grown in presence or absence of cathepsin inhibitors, and GFP fluorescence was monitored with various detection methods. […] Cells from one set of plates were harvested by trypsinization, resuspended in PBS, and GFP fluorescence was subsequently determined with flow cytometry. […] The cells were grown for an additional 24 h and GFP fluorescence was measured as described above. For detection with the CytoFluor plate reader, cells (400,000 cells/ml) in a total volume of 250 μl per well, were cultured in 96-well microplates. […] After the removal of medium, 200 μl of PBS was added to each well and the plates were scanned to monitor GFP fluorescence. Background fluorescence was determined from negative control cells (-doxycycline), and was subtracted from the fluorescence values obtained from induced cells that were cultured with various concentrations of inhibitors.
# caspase 8 = biological target: T2, caspase 8 (Homo sapiens, UniProt Q14790); assay: Cell-based assay for caspase 8 in Jurkat cells (GFP double mutant, anti-Fas Ab, guanidine-HCl)
# T2 construct: endogenous in cells; host or cells: Jurkat-rtTA cells
# T2 sequence (Q14790 217-374 limits assumed): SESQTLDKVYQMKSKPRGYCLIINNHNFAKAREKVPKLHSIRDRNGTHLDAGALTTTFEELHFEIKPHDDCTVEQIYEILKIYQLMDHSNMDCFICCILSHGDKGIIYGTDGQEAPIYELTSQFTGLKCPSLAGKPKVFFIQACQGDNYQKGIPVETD
# T2 sequence (Q14790 385-479 limits assumed): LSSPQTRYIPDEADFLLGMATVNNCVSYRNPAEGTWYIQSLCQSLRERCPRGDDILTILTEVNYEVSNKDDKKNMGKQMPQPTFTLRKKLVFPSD
# From the text: Two factors are particularly important for the successful conversion of GFP into a preferred protease substrate: (i) the cleavage of the accessible substrate recognition sequence and (ii) the susceptibility of the cleaved GFP relative to the intact (non-cleaved) GFP towards unfolding. In the present work, it was preferred to introduce two cleavage sites in order to sufficiently destabilize GFP so that rapid unfolding could be observed at pH 5.5 in vitro. This is represented by a Scheme in FIG. 6. FIG. 6 is a graphical depiction of fluorescence as a function of the duration of exposure to guanidine-HCl. The assay was performed in Jurkat cells, using an anti-Fas Ab for caspase 8 activation. The assay is run in a 96-well plate format, using the Cytofluor plate reader. […] Without addition of Guanidine-HCl, no change in fluorescence was observed. However, a functional cellular assay (i.e. with a fluorescence readout) was obtained by incubating the cells with the denaturing agent Guanidine-HCl prior to analysis.
# Without addition of Guanidine-HCl, no change in fluorescence is observed. However, a functional cellular assay (i.e. with a fluorescence readout) was obtained by incubating the cells with the denaturing agent Guanidine-HCl prior to analysis (FIG. 6).
# The assay was performed in Jurkat cells and the GFP substrate was delivered by means of transient transfection. […]
# cathepsin L [2] = biological target: T1, cathepsin L; assay: Intracellular cathepsin L assay, wild type preprocathepsin L-GFP in HeLa-rtTA cells, FACS; format: cell-based; settings: 48 h
# Method: (§3) A potent cathepsin L irreversible inhibitor, Cbz-LeuLeuTyr-CHN2, was also used in this experiment. To induce cathepsin L-GFP expression, the cells were cultured in the presence of doxycycline for 48 h. […] Fluorescence that corresponds to GFP, however, is found in the peaks at higher fluorescence levels (FIGS. 13B,C). This can be observed in all cell populations expressing GFP. […] In the absence of inhibitor, the active enzyme hydrolyzes most of the GFP substrate, resulting in low fluorescence levels. […] It must be noted also that the low level of cellular fluorescence increases slightly in presence of the inhibitor, possibly due to effects on cellular events.
# (§4) FIG. 13 Characterization of GFP fluorescence by FACS analysis. Expression of GFP fusion proteins was induced in the presence or absence of Z-Leu-Leu-Tyr-CHN2 inhibitor for 48 h, and the fluorescence was measured by FACS . Panel A. The fluorescence histograms of non-30 transfected HeLa-rtTA cells, cultured in absence (shaded) or in presence of 35 μM inhibitor (superimposed). A shift of the superimposed histogram depicts an increase of the background fluorescence in response to the inhibitor (see text for more details). Panel B. The fluorescence histograms of cells expressing the mutant preprocathepsin L-GFP (C25A) fusion protein, grown in absence (shaded) and in presence (superimposed) of 35 μM inhibitor. Panel C. […]
# [3] = biological target: T3, non-active preprocathepsin L (C25A) mutant (Homo sapiens, UniProt P07711, C138A); assay: Control, mutant preprocathepsin L-GFP (C25A) in HeLa-rtTA cells, FACS; format: cell-based; settings: inactive cathepsin L (C25A), up to 35 μM inhibitor, 48 h
# T3 construct: The C-terminus of the full length human preprocathepsin L is fused in frame to the N-terminus of GFP; GFP (Aequorea victoria, F64L/S65C/I167T/K238N) via BglII-NheI linker (C); expressed in transfected cells
# T3 sequence (P07711 114-333 C138A): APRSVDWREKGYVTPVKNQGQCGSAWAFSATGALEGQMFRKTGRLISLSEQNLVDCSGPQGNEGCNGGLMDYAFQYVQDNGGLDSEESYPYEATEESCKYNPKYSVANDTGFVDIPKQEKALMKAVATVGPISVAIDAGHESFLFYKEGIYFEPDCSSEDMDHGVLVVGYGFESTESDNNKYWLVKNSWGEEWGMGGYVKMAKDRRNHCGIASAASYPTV
# Method: as §3, §4
# [4] = biological target: T3, non-active preprocathepsin L (C25A) mutant; assay: Control, mutant preprocathepsin L-GFP (C25A) in HeLa-rtTA cells, 96-well plate reader; format: cell-based; settings: 0-60 μM, 48 h
# Method: as §2
# as §1, with “Percentage of viable cells expressing the wild type fusion protein after treatment with inhibitors. Panel D. The percentage of viable cells expressing the mutant fusion protein as described in Panel C.” left out
SMILES,Effect on cell viability (HeLa-rtTA cells),Effect on overall level of GFP fluorescence (cathepsin L [1]),"Response of fluorescence with inhibitor concentration (caspase 8; Fas-dependent hydrolysis of GFP, guanidine-HCl before reading)","Hydrolysis of GFP mutant in response to Fas-induced apoptosis (caspase 8; Jurkat-rtTA cells, Western with polyclonal anti-GFP Ab)",Cell viability (HeLa-rtTA cells),"GFP fluorescence (cathepsin L [2]; 35 μM inhibitor, doxycycline)",Increase of fluorescence (fluorescence index) (cathepsin L [2]; inhibitor concentration increased from 0 to 35 μM),GFP fluorescence [3],Fluorescence of cells expressing mutant non-active fusion protein [4],Fluorescence increase relative to control cells without inhibitor (cathepsin L [1]; 60 μM) [fold]
"CC(C)C[C@H](NC(=O)[C@H]1O[C@@H]1C(=O)O)C(=O)NCCCCN=C(N)N (relative stereo) [E-64, N-[N-(L-3-trans-carboxyoxirane-2-carbonyl)-L-leucyl]amino-4-guanidinobutane]",Almost no effect,no significant effect,,,,,,,,
COC(=O)C[C@H](NC(=O)[C@H](C)NC(=O)[C@@H](NC(=O)OCc1ccccc1)C(C)C)C(=O)CF [Z-VAD-FMK] (Cbz-Val-Ala-Asp(OMe)-CH2F),,,dose-dependent response,inhibited,,,,,,
CC(C)C[C@H](NC(=O)OCc1ccccc1)C(=O)N[C@@H](CC(C)C)C(=O)N[C@@H](Cc1ccc(O)cc1)C(=O)CF [Cbz-LeuLeuTyr-CH2F] (Cbz-Leu-Leu-Tyr-CH2F),inversely proportional to the inhibitor concentration,no significant effect,,,approximately 50%,,,,,
CC(C)C[C@H](NC(=O)OCc1ccccc1)C(=O)N[C@@H](CC(C)C)C(=O)N[C@@H](Cc1ccc(O)cc1)C(=O)C=[N+]=[N-] [Cbz-LeuLeuTyr-CHN2] (Cbz-Leu-Leu-Tyr-CHN2),inversely proportional to the inhibitor concentration,dose-dependent increase,,,approximately 50%,significant increase,up to 5 fold,virtually no change; also recorded: remained unchanged,small increase,20

# — patent US20040042961A1, “Development of an in vivo functional assay for proteases” (priority 2002, published 2004)
